Here are results for three compounds from US20250099450A1, “PHARMACEUTICAL COMBINATION FOR TREATING TUMORS AND USE THEREOF” (INXMED (NANJING) CO., LTD, priority 2022, published 2025).

Test [1] relates to colon cancer CT-26 cell line. Put plainly: In vitro efficacy of IN10018 and HL-085 in CT26 cells (microscopy, flow cytometry). It is filed as cell-based, mouse. The following applies: 48 hours, IN10018 5 μM, HL-085 1 μM. How it is done: CT26 cells were cultured with RPMI 1640 (Shanghai Yuanpei, Cat No.: L210KJ, Lot No.: F210916)+10% FBS (Gibco, Cat No.: 10099-141c, Lot No.: 2158737cp) and passaged twice. When the cells were in good condition, the culture plates were placed in 24-well plates. After 24 hours of cell spreading, four groups were set up. The first group was the control group, to which culture medium was added, the second group was IN10018 at a concentration of 5 μM, the third group was HL-085 at a concentration of 1 μM, and the fourth group was IN10018 (5 μM) combined with HL-085 (1 μM). The drugs were mixed and cultured at 37° C. in a 5% CO2 incubator for 48 hours.
After 48 hours of drug action, cells were observed under a microscope and photographed to confirm the cell killing effect. Then the cells were collected for flow analysis, and the cells were washed twice with flow buffer (PBS+2% FBS) and 0.5 μl AF647. Anti-calreticulin antibody (abeam) was added to each well and mixed. The mixture was incubated at 4° C. in the dark, flow buffer was added after 20 min of incubation, the annexin staining kit (Beyotime) was used and 195 μl […] was added. After pipetting and mixing with the cells, 5 μl Annexin-V-FITC antibody was added and gently mixed. Finally, 10 μl PI dye was added and mixed. […]
On the technique in general: Flow cytometry measures light scatter and fluorescence of single cells or particles in a stream.

Test [2] relates to Calreticulin (ICD target) in A375 cells. Put plainly: Calreticulin immunofluorescence in A375 after FAK silencing plus Cobimetinib. The note with it: FAK siRNA 50 nM, then 10 nM Cobimetinib 48 hours. It is filed as cell-based. On the procedure:
A375 cells were transfected with control siRNA or FAK siRNA at a final concentration of 50 nM. After 24 hours, A375 cells were treated with 10 nM Cobimetinib for 48 hours and then calreticulin was detected by immunofluorescence.

Test [3] deals with CT-26 mouse colorectal cancer cell subcutaneous allograft tumor. Put plainly: In vivo antitumor efficacy, CT-26 subcutaneous allograft tumor model (Example 3). Further details: species or system BALB/c mice; TGI (tumor growth inhibition rate): dose or concentration left out as unconfirmed. The following applies: for TGI (tumor growth inhibition rate) / Tumor volume on day 15: 15th day after group administration; for TGI (tumor growth inhibition rate): vs control group; for Tumor volume on day 15: Cobimetinib 7.5 mg/kg ip TIW, IN10018 12.5 mg/kg po QD, PDL1 antibody 5 mg/kg ip BIW, mean ± standard error. From the text:
Mice: Female BALB/c mice aged 6-8 weeks were purchased from Beijing Weitong Lihua Laboratory Animal Co., Ltd. The assay began after the animals arrived and were adapted to the experimental environment. The animals were kept in IVC (independent ventilation system) cages (6 per cage) in an SPF-level animal room. All cages, bedding and drinking water must be sterilized before use. All experimenters should wear protective clothing and latex gloves when operating in the animal room. The animal information cards for each cage should indicate the number of animals in the cage, gender, strain, receipt date, dosing regimen, assay number, group and start date of the assay. Cages, feed and drinking water were changed twice a week. The breeding environment and lighting conditions are as follows:
5% CO2 incubator. Two to three times a week, routine digestion and subculture were performed with trypsin-EDTA. When the cells were in the exponential growth phase and the saturation was 80%-90%, the cells were harvested, counted, and inoculated.
0.1 mL of cell suspension containing 3×10^5 cells was subcutaneously inoculated on the right back of each mouse. When the tumor volume reached ˜58 mm^3 (10 days after cell inoculation), the mice were randomly divided into groups for drug administration according to the tumor volume.
The diameter of tumor was measured with vernier caliper, 3 times a week. The formula for calculating the tumor volume is: V=0.5×a×b^2, where a and b represent the long and short diameters of the tumor respectively.
Animals were considered dead when they died naturally or when the tumor volume was greater than 2500 mm^3. The survival rate and life cycle of the animals after administration were calculated based on this.
Statistical analysis was performed based on tumor volume and tumor weight at the end of the trial using Prism Graphpad software. Comparisons between multiple groups were analyzed using the Two-way ANOVA test, and P<0.05 was considered as having significant differences.
The survival rate of animals was analyzed using the Gehan-Breslow-Wilcoxon test, and P<0.05 was considered as having significant difference.

Test [4] has as its system melanoma cells A375. Put plainly: Cell killing (CCK8) of Cobimetinib against A375 after FAK silencing. It is filed as cell-based. The following applies: with FAK silencing (FAK siRNA) vs control siRNA, 72 h. How it is done:
In the in vitro assay, different concentrations of Cobimetinib were given under the condition of silencing the FAK gene. In A375 cells, the cell killing curve was obtained and the IC50 value was determined. The cytotoxic effect of Cobimetinib in the control group and the FAK siRNA group was compared to explore the effect of the FAK target on the cytotoxicity of Cobimetinib. The cell killing curve of Cobimetinib at different concentrations in melanoma cells A375 under the condition of FAK gene silencing was detected in the assay and the IC50 value was determined. A 96-well cell plate was seeded with 5000 A375 cells/well, and two groups were transfected with control siRNA or FAK siRNA respectively. Cobimetinib was added 24 hours after the transfection. The highest concentration was 1 μM. A total of 6 concentrations were set for 3-fold gradient dilution. The lowest concentration of Cobimetinib was 4.115 nM. After the drug and cells were incubated for 72 hours, 10 μl CCK8 solution was added to each well and incubated at 37 degrees in a 5% carbon dioxide incubator for 2 hours. A microplate reader with the absorbance wavelength set to 450 nm was used for reading. The values read were compared to the DMSO control group and plotted using Graphpad 8.0.

Test [5] has as its system endoplasmic reticulum stress-related proteins GRP78 and Phospho-eIF2α (Ser51) in A375 cells. Put plainly: Endoplasmic reticulum stress protein expression in A375 after FAK silencing plus Cobimetinib. The note with it: FAK siRNA 50 nM, then Cobimetinib 6 hours. It is filed as cell-based. How it is done:
A375 cells were transfected with control siRNA or FAK siRNA at a final concentration of 50 nM. After 24 hours of transfection, different concentrations of Cobimetinib were given for 6 hours. The protein expression levels of FAK and endoplasmic reticulum stress-related proteins GRP78 and Phospho-eIF2α (phosphorylated-Phospho-eIF2α) (Ser51) were detected.

Consider `O=C(NOCCO)c1cc2scnc2c(F)c1Nc1ccc(I)cc1F` [HL-085], for which the “cell status / cell killing effect observed under a microscope” value in test [1] is “poor”.

Turning to `O=C(c1ccc(F)c(F)c1Nc1ccc(I)cc1F)N1CC(O)([C@@H]2CCCCN2)C1` [Cobimetinib], the “exposure and release of the DAMPs marker calreticulin” value in test [2] is listed as “significantly enhance”. For the same compound, in test [3], the “TGI (tumor growth inhibition rate)” value is listed as 59.2% and the “Tumor volume on day 15” value was 1261.3±565.4 mm^3. Moreover, the “Survival rate on Day 31” value in test [3] (31st day after group administration, death = natural death or tumor volume > 2500 mm^3, Cobimetinib 7.5, IN10018 12.5, PDL1 antibody 5 mg/kg) stood at 16.7%. The compound further returned a Median survival time in test [3] (up to the 31st day after group administration, Cobimetinib 7.5, IN10018 12.5, PDL1 antibody 5 mg/kg) of 22 days. Moreover, the “cell killing effect of cobimetinib on melanoma cells A375” value in test [4] is listed as “significantly enhance”. In addition, in test [5], the “endoplasmic reticulum stress of A375” value is listed as “Significantly Up-Regulated”.

With `COc1cc(C(=O)NC2CCN(C)CC2)c(F)cc1Nc1ncc(C(F)(F)F)c(Oc2cccc3c2C(=O)N(C)C3)n1` [IN10018], in test [3], the “TGI (tumor growth inhibition rate)” value was found to be 19.9% and the “Tumor volume on day 15” value is given as 2418.8±436.5 mm^3. In test [1], the “cell status / cell killing effect observed under a microscope” value is on record as “better”.
